{"source": "patent US20030013099A1", "about": "“Genes regulated by DNA methylation in colon tumors” (priority 2001, published 2003)", "key": {"HT29 cells": {"test_system": "HT29 cells", "assay": "microarray differential expression, HT29 cells treated with 500 nM Aza", "type": "cell-based, human", "conditions": "vs untreated, log base 2, negative = upregulation", "protocol": "HT29 cells were derived from a Grade II adenocarcinoma of the colon obtained from a person. HCT116 cells are a subpopulation of malignant cells isolated from a primary cell culture of a single human colonic carcinoma (Brattain et al. (1981) Cancer Res 41:1751-6). HMEC cells are a primary human epithelial cell line derived from the breast tissue of a normal donor. HT29 and HCT116 colorectal carcinoma cells (American Type Culture Collection, Manassas Va.) were cultured in McCoy's medium supplemented with 10% fetal bovine serum (Invitrogen) at 37° C. and 5% CO2. Treated cells were exposed to 500 nM 5-aza-2-deoxycytidine (Aza; Sigma-Aldrich) 24 hours after passage in complete culture medium. Control cultures were treated in parallel with phosphate buffered saline vehicle. After twenty-four hours, culture medium was replaced with drug-free medium. Control and Aza-treated cells were subcultured at equal densities at 1 and 5 days after the initial treatment, and proliferation was measured at the subsequent time point using a Coulter counter (Beckman Coulter, Fullerton Calif.). Cells were harvested 5 days after the initial treatment.\nCells were harvested and lysed in 1 ml of TRIZOL reagent (5×10^6 cells/ml; Invitrogen). The lysates were vortexed thoroughly and incubated at room temperature for 2-3 minutes and extracted with 0.5 ml chloroform. The extract was mixed, incubated at room temperature for 5 minutes, and centrifuged at 16,000× g for 15 minutes at 4° C. The aqueous layer was collected, and an equal volume of isopropanol was added. Samples were mixed, incubated at room temperature for 10 minutes, and centrifuged at 16,000× g for 20 minutes at 4° C. The supernatant was removed, and the RNA pellet was washed with 1 ml of 70% ethanol, centrifuged at 16,000× g at 4° C., and resuspended in RNAse-free water. The concentration of the RNA was determined by measuring the optical density at 260 nm.\nPoly(A) RNA was prepared using an OLIGOTEX mRNA kit (Qiagen) with the following modifications: OLIGOTEX beads were washed in tubes instead of on spin columns, resuspended in elution buffer, and then loaded onto spin columns to recover mRNA. To obtain maximum yield, the mRNA was eluted twice.\nEach poly(A) RNA sample was reverse transcribed using MMLV reverse-transcriptase, 0.05 pg/μl oligo-d(T) primer (21mer), 1× first strand buffer, 0.03 units/ul RNAse inhibitor, 500 uM dAT?, 500 uM dGTP, 500 uM dTTP, 40 uM dCTP, and 40 uM either dCTP-Cy3 or dCTP-Cy5 (APB). The reverse transcription reaction was performed in a […] volume containing 200 ng poly(A) RNA using the GEMBRIGHT kit (Incyte Genomics). Specific control poly(A) RNAs (YCFRO6, YCFR45, YCFR67, YCFR85, YCFR43, YCFR22, YCFR23, YCFR25, YCFR44, YCFR26) were synthesized by in vitro transcription from non-coding yeast genomic DNA (W. Lei, unpublished). As quantitative controls, control mRNAs (YCFRO6, YCFR45, YCFR67, and YCFR85) at 0.002 ng, 0.02 ng, 0.2 ng, and 2 ng were diluted into reverse transcription reaction at ratios of 1:100,000, 1:10,000, 1:1000, 1:100 (w/w) to sample mRNA, respectively. To sample differential expression patterns, control mRNAs (YCFR43, YCFR22, YCFR23, YCFR25, YCFR44, YCFR26) were diluted into reverse transcription reaction at ratios of 1:3, 3:1, 1:10, 10:1, 1:25, 25:1 (w/w) to sample mRNA. Reactions were incubated at 37° C. for 2 hours, treated with […] of 0.5M sodium hydroxide, and incubated for 20 minutes at 85° C. to the stop the reaction and degrade the RNA.\ncDNAs were purified using two successive CHROMA SPIN 30 gel filtration spin columns (Clontech). Cy3- and Cy5-labeled reaction samples were combined as described below and ethanol precipitated using […] of 100% ethanol. The cDNAs were then dried to completion using a SpeedVAC system (Savant Instruments, Holbrook N.Y.) and resuspended in 14 μl 5× SSC, 0.2% SDS. […]"}, "MIN mouse": {"test_system": "MIN mouse", "conditions": "Aza treatment in combination with a genetic reduction in DNA methyltransferase I activity; cited from earlier work"}}}
{"smiles": "Nc1ncn([C@H]2C[C@H](O)[C@@H](CO)O2)c(=O)n1", "note": "[Aza, 5-aza-2-deoxycytidine]", "values": [{"measurement": "differential expression, Clone ID 2416222, HT29 t/ Aza (5d)", "setting": "HT29 cells; SEQ ID NO:1 hypothetical protein", "value": "−1.74"}, {"measurement": "differential expression, Clone ID 4103545, HT29 t/ Aza (5d)", "setting": "HT29 cells; SEQ ID NO:2 Incyte Unique", "value": "−1.89"}, {"measurement": "differential expression, Clone ID 322569, HT29 t/ Aza (5d)", "setting": "HT29 cells; SEQ ID NO:3 interferon-inducible protein", "value": "−4.17"}, {"measurement": "differential expression, Clone ID 5322134, HT29 t/ Aza (5d)", "setting": "HT29 cells; SEQ ID NO:5 chromosome 6p21.3, HLA Class I region", "value": "−2.12"}, {"measurement": "differential expression, Clone ID 1698458, HT29 t/ Aza (5d)", "setting": "HT29 cells; SEQ ID NO:6 unnamed protein product", "value": "−1.79"}, {"measurement": "differential expression, Clone ID 1871523, HT29 t/ Aza (5d)", "setting": "HT29 cells; SEQ ID NO:7 KIAA1046 protein", "value": "−1.07"}, {"measurement": "differential expression, Clone ID 6024084, HT29 t/ Aza (5d)", "setting": "HT29 cells; SEQ ID NO:8 putative tumor antigen", "value": "−2.79"}, {"measurement": "differential expression, Clone ID 3810006, HT29 t/ Aza (5d)", "setting": "HT29 cells; SEQ ID NO:9 Incyte Unique", "value": "−0.92"}, {"measurement": "differential expression, Clone ID 4508879, HT29 t/ Aza (5d)", "setting": "HT29 cells; SEQ ID NO:10 Incyte Unique", "value": "−0.85"}, {"measurement": "differential expression, Clone ID 4225379, HT29 t/ Aza (5d)", "setting": "HT29 cells; SEQ ID NO:11 U 6 RNA", "value": "−0.85"}, {"measurement": "differential expression, Clone ID 3463713, HT29 t/ Aza (5d)", "setting": "HT29 cells; SEQ ID NO:12 cDNA clone ZD16H10", "value": "−1.87"}, {"measurement": "differential expression, Clone ID 2998017, HT29 t/ Aza (5d)", "setting": "HT29 cells; SEQ ID NO:13, 14 T-cell receptor gamma", "value": "−1.14"}, {"measurement": "differential expression, Clone ID 4318273, HT29 t/ Aza (5d)", "setting": "HT29 cells; SEQ ID NO:15 pTR5 repetitive sequence", "value": "−1.58"}, {"measurement": "differential expression, Clone ID 1649414, HT29 t/ Aza (5d)", "setting": "HT29 cells; SEQ ID NO:16 Hep27 protein", "value": "−1.20"}, {"measurement": "differential expression, Clone ID 1684742, HT29 t/ Aza (5d)", "setting": "HT29 cells; SEQ ID NO:18 cDNA FLJ20222", "value": "−0.85"}, {"measurement": "differential expression, Clone ID 2825816, HT29 t/ Aza (5d)", "setting": "HT29 cells; SEQ ID NO:19 KIAA0412", "value": "−1.84"}, {"measurement": "differential expression, Clone ID 2440943, HT29 t/ Aza (5d)", "setting": "HT29 cells; SEQ ID NO:21 Incyte Unique", "value": "−1.07"}, {"measurement": "differential expression, Clone ID 1294339, HT29 t/ Aza (5d)", "setting": "HT29 cells; SEQ ID NO:22 PDGF-B", "value": "−0.93"}, {"measurement": "differential expression, Clone ID 5104741, HT29 t/ Aza (5d)", "setting": "HT29 cells; SEQ ID NO:23 cDNA FLJ10570", "value": "−0.93"}, {"measurement": "differential expression, Clone ID 1855389, HT29 t/ Aza (5d)", "setting": "HT29 cells; SEQ ID NO:24 pTR7 repetitive sequence", "value": "−2.09"}, {"measurement": "differential expression, Clone ID 5207613, HT29 t/ Aza (5d)", "setting": "HT29 cells; SEQ ID NO:25 chromosome 21 segment HS21C049", "value": "−2.10"}, {"measurement": "differential expression, Clone ID 3207902, HT29 t/ Aza (5d)", "setting": "HT29 cells; SEQ ID NO:26 hypothetical protein", "value": "−1.29"}, {"measurement": "differential expression, Clone ID 4999769, HT29 t/ Aza (5d)", "setting": "HT29 cells; SEQ ID NO:27 ZNFpT17", "value": "−1.26"}, {"measurement": "differential expression, Clone ID 408886, HT29 t/ Aza (5d)", "setting": "HT29 cells; SEQ ID NO:28 transketolase", "value": "−1.31"}, {"measurement": "differential expression, Clone ID 4764233, HT29 t/ Aza (5d)", "setting": "HT29 cells; SEQ ID NO:30 GAGE-8", "value": "−2.00"}, {"measurement": "differential expression, Clone ID 2511379, HT29 t/ Aza (5d)", "setting": "HT29 cells; SEQ ID NO:31 GAGE-7B", "value": "−1.98"}, {"measurement": "differential expression, Clone ID 2471817, HT29 t/ Aza (5d)", "setting": "HT29 cells; SEQ ID NO:33 cDNA clone YU62C03", "value": "−1.20"}, {"measurement": "differential expression, Clone ID 3333736, HT29 t/ Aza (5d)", "setting": "HT29 cells; SEQ ID NO:34 MAGE-11 antigen", "value": "−1.38"}, {"measurement": "differential expression, Clone ID 1304365, HT29 t/ Aza (5d)", "setting": "HT29 cells; SEQ ID NO:35 GAGE-8", "value": "−2.48"}, {"measurement": "differential expression, Clone ID 2657056, HT29 t/ Aza (5d)", "setting": "HT29 cells; SEQ ID NO:37, 38 MAGE-4b antigen", "value": "−1.93"}, {"measurement": "differential expression, Clone ID 2507719, HT29 t/ Aza (5d)", "setting": "HT29 cells; SEQ ID NO:39 MAGE-9 antigen", "value": "−2.32"}, {"measurement": "differential expression, Clone ID 4688, HT29 t/ Aza (5d)", "setting": "HT29 cells; SEQ ID NO:41 MAGE-1", "value": "−2.03"}, {"measurement": "differential expression, Clone ID 2068708, HT29 t/ Aza (5d)", "setting": "HT29 cells; SEQ ID NO:42 HM74", "value": "−1.17"}, {"measurement": "differential expression, Clone ID 23770, HT29 t/ Aza (5d)", "setting": "HT29 cells; SEQ ID NO:43 1-8D", "value": "−2.99"}, {"measurement": "differential expression, Clone ID 1616783, HT29 t/ Aza (5d)", "setting": "HT29 cells; SEQ ID NO:45 Incyte Unique", "value": "−0.84"}, {"measurement": "differential expression, Clone ID 820942, HT29 t/ Aza (5d)", "setting": "HT29 cells; SEQ ID NO:46 cDNA FLJ20120", "value": "−0.58"}, {"measurement": "differential expression, Clone ID 891322, HT29 t/ Aza (5d)", "setting": "HT29 cells; SEQ ID NO:47 Incyte Unique", "value": 0.00}, {"measurement": "differential expression, Clone ID 2755836, HT29 t/ Aza (5d)", "setting": "HT29 cells; SEQ ID NO:48 U5 A RNA", "value": "−0.68"}, {"measurement": "differential expression, Clone ID 1227521, HT29 t/ Aza (5d)", "setting": "HT29 cells; SEQ ID NO:49 phospholipid scramblase 1", "value": "−2.10"}, {"measurement": "differential expression, Clone ID 2200842, HT29 t/ Aza (5d)", "setting": "HT29 cells; SEQ ID NO:50 retinoid inducible gene 1", "value": "−1.74"}, {"measurement": "differential expression, Clone ID 2238363, HT29 t/ Aza (5d)", "setting": "HT29 cells; SEQ ID NO:51 interferon induced", "value": "−1.85"}, {"measurement": "differential expression, Clone ID 1495382, HT29 t/ Aza (5d)", "setting": "HT29 cells; SEQ ID NO:53 TRAIL", "value": "−1.07"}, {"measurement": "differential expression, Clone ID 1998269, HT29 t/ Aza (5d)", "setting": "HT29 cells; SEQ ID NO:55 rhoB", "value": "−0.92"}, {"measurement": "differential expression, Clone ID 1919287, HT29 t/ Aza (5d)", "setting": "HT29 cells; SEQ ID NO:56 hepatitis C-associated microtubular aggregate", "value": "−3.12"}, {"measurement": "differential expression, Clone ID 2637446, HT29 t/ Aza (5d)", "setting": "HT29 cells; SEQ ID NO:57 HE4 protein", "value": "−1.07"}, {"measurement": "differential expression, Clone ID 1962141, HT29 t/ Aza (5d)", "setting": "HT29 cells; SEQ ID NO:58 Similar to keratin 7", "value": "−0.43"}, {"measurement": "differential expression, Clone ID 4933404, HT29 t/ Aza (5d)", "setting": "HT29 cells; SEQ ID NO:60 Incyte Unique", "value": "−0.32"}, {"measurement": "differential expression, Clone ID 2150288, HT29 t/ Aza (5d)", "setting": "HT29 cells; SEQ ID NO:61 Keratin 8", "value": "−0.07"}, {"measurement": "differential expression, Clone ID 2697455, HT29 t/ Aza (5d)", "setting": "HT29 cells; SEQ ID NO:61 Keratin 8", "value": "−0.32"}, {"measurement": "polyp formation", "setting": "MIN mouse", "value": "reduced polyp formation"}]}
